Assay results from patent US12338256B2, “Aza-tetracyclic oxazepine compounds and uses thereof” (Genentech, Inc., priority 2022, dated 2025).
pIC50: −log10 of the molar value.

Tests used:
Type in all cases: cell-based
[1] = system: HPAC (homozygous mutant KRAS G12D human pancreatic cell line); assay: KRAS 3D-Cell Proliferation Assay, HPAC (Example 503); details: Homo sapiens, HPAC, 168 h, HPAC 3D culture, 7 days, CellTiter-Glo 3D; read-out: Prolif HPAC 3D ATP IC50
Procedure, shortened: (§1)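 KRAS G12D homozygous pancreatic lines and KRAS wild-type lung lines grown as 3D cultures in ultra-low-attachment wells in RPMI-1640/10% FBS, dosed after overnight with compound dilution series (0.3% DMSO final) for 7 days at 37 °C. ATP read by CellTiter-Glo 3D luminescence; IC50 from 4-parameter Hill fit, normalized to DMSO and 1 μM staurosporine.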

[2] = system: AsPC-1 (homozygous mutant KRAS G12D human pancreatic cell line); assay: KRAS 3D-Cell Proliferation Assay, AsPC-1 (Example 503); details: Homo sapiens, ASPC1, 168 h, AsPC-1 3D culture, 7 days, CellTiter-Glo 3D; read-out: Prolif AsPC-1 3D ATP IC50
Procedure, shortened: as §1

[3] = system: H1975 (KRAS wild type human lung adenocarcinoma cell line); assay: KRAS 3D-Cell Proliferation Assay, H1975 (Example 503); details: Homo sapiens, NCI-H1975, 168 h, H1975 3D culture, 7 days, CellTiter-Glo 3D; read-out: Prolif H1975 3D ATP IC50
Procedure, shortened: as §1

[4] = system: PC-9 (KRAS wild type human lung adenocarcinoma cell line); assay: KRAS 3D-Cell Proliferation Assay, PC-9 (Example 503); details: 168 h, PC-9 3D culture, 7 days, CellTiter-Glo 3D, read-out: Prolif PC9 3D ATP IC50
Description: Example 503: KRAS 3D-Cell Proliferation Assays. Cellular potencies of compounds are assessed by evaluating inhibition of proliferation in 3D cultures of homozygous mutant KRAS G12D human pancreatic cell lines (AsPC-1 and HPAC) as compared to a KRAS wild type human lung adenocarcinoma cell line (PC-9 and/or H1975). Cells are seeded into 384-well black round-bottom, ultra-low attachment assay plates in 50 uL cell growth medium (RPMI-1640 with 10% fetal bovine serum and 2 mM L-glutamine). After overnight incubation at 37° C. and 5% CO2, compounds solubilized in DMSO are added as dilution series to the wells in a total volume of 150 nL (0.3% DMSO final). The cells are incubated for 7 days at 37° C. and 5% CO2. Cell proliferation is quantitated by addition of 40 uL/well of CellTiter-GloÒ 3D (Promega), and the well contents are mixed 20× at high speed using liquid handling automation workstation (Bravo with 384-well head) and centrifuged at 1500 rpm for 2 minutes to eliminate bubbles. This reagent in combination with mechanical disruption releases the cellular ATP to promote activity in a luciferase-based enzyme/substrate chemiluminescent detection system. After a 30-minute incubation under ambient conditions with shaking and an additional 10 minutes without shaking, the luminescence is read on a plate reader (e.g., EnVision [PerkinElmer]). The results are normalized to percent inhibition based on the following control samples: DMSO (0% inhibition) and 1 μM staurosporine (100% inhibition). The normalized luminescence results are plotted against compound concentration, and the data are fit to a 4-parameter Hill equation to determine the IC50 values.

Structure (SMILES): Cc1cc(N)c(F)c(-c2nc3c4c(nc(OCC56CCN5CC(F)(F)C6)nc4c2F)N2C[C@H]4CC[C@H](N4)[C@H]2[C@H](C)O3)c1C(F)(F)F (mixture of isomers) [Compound 33, 3-((5S,5aS,6S,9R)-12-((3,3-Difluoro-1-azabicyclo[3.2.0]heptan-5-yl)methoxy)-1-fluoro-5-methyl-5a,6,7,8,9,10-hexahydro-5H-4-oxa-3,10a,11,13,14-pentaaza-6,9-methanonaphtho[1,8-ab]heptalen-2-yl)-2-fluoro-5-methyl-4-(trifluoromethyl)aniline]
- pIC50 [1]: 8.89
- pIC50 [2]: 8.43
- pIC50 [3]: 5.73
- pIC50 [4]: 5.41

Structure (SMILES): C#Cc1cccc2cc(O)cc(-c3nc4c5c(nc(OCC67CCN6CC(F)(F)C7)nc5c3F)N3C[C@H]5CC[C@H](N5)[C@H]3[C@H](C)O4)c12 (single isomer, unassigned) [Compound 20]
- pIC50 [1]: 8.11
- pIC50 [2]: 7.54
- pIC50 [3]: 5.65
- pIC50 [4]: 5.06

Structure (SMILES): C#Cc1cccc2cc(O)cc(-c3nc4c5c(nc(OC[C@@]67CCCN6C[C@H](F)C7)nc5c3F)N3C[C@H]5CC[C@H](N5)[C@H]3CO4)c12 [Compound 3, 5-ethynyl-4-((5aS,6S,9R)-1-fluoro-12-(((2R,7aS)-2-fluorotetrahydro-1H-pyrrolizin-7a(5H)-yl)methoxy)-5a,6,7,8,9,10-hexahydro-5H-4-oxa-3,10a,11,13,14-pentaaza-6,9-methanonaphtho[1,8-ab]heptalen-2-yl)naphthalen-2-ol]
- pIC50 [1]: 7.95
- pIC50 [2]: 8.17
- pIC50 [3]: 6.69
- pIC50 [4]: ≤ 4.70

Structure (SMILES): CCc1cccc2cc(O)cc(-c3nc4c5c(nc(OC[C@@]67CCCN6C[C@H](F)C7)nc5c3F)N3C[C@H]5CC[C@H](N5)[C@H]3CO4)c12 [Compound 5, 5-ethyl-4-((5aS,6S,9R)-1-fluoro-12-(((2R,7aS)-2-fluorotetrahydro-1H-pyrrolizin-7a(5H)-yl)methoxy)-5a,6,7,8,9,10-hexahydro-5H-4-oxa-3,10a,11,13,14-pentaaza-6,9-methanonaphtho[1,8-ab]heptalen-2-yl)naphthalen-2-ol]
- pIC50 [1]: 8.15
- pIC50 [2]: 8.20
- pIC50 [3]: 5.85
- pIC50 [4]: 5.04

Structure (SMILES): Cc1c(F)c(N)cc(-c2nc3c4c(nc(OC[C@@]56CCCN5C[C@H](F)C6)nc4c2F)N2C[C@H]4CC[C@H](N4)[C@H]2[C@H](C)O3)c1C(F)(F)F [Compound 6, 2-Fluoro-5-((5S,5aS,6S,9R)-1-fluoro-12-(((2R,7aS)-2-fluorotetrahydro-1H-pyrrolizin-7a(5H)-yl)methoxy)-5-methyl-5a,6,7,8,9,10-hexahydro-5H-4-oxa-3,10a,11,13,14-pentaaza-6,9-methanonaphtho[1,8-ab]heptalen-2-yl)-3-methyl-4-(trifluoromethyl)aniline]
- pIC50 [1]: 9.61
- pIC50 [2]: 9.25
- pIC50 [3]: 6.16
- pIC50 [4]: 5.38

Structure (SMILES): C#Cc1c(F)ccc2cc(O)cc(-c3nc4c5c(nc(OC[C@@]67CCCN6C[C@H](F)C7)nc5c3F)N3C[C@H]5CC[C@H](N5)[C@H]3[C@H](C)O4)c12 [Compound 7, 5-Ethynyl-6-fluoro-4-((5S,5aS,6S,9R)-1-fluoro-12-(((2R,7aS)-2-fluorotetrahydro-1H-pyrrolizin-7a(5H)-yl)methoxy)-5-methyl-5a,6,7,8,9,10-hexahydro-5H-4-oxa-3,10a,11,13,14-pentaaza-6,9-methanonaphtho[1,8-ab]heptalen-2-yl)naphthalen-2-ol]
- pIC50 [1]: 8.87
- pIC50 [2]: 8.72
- pIC50 [3]: 6.89
- pIC50 [4]: 4.99

Structure (SMILES): C[C@@H]1Oc2nc(-c3cccc4cccc(Cl)c34)c(F)c3nc(OC[C@@]45CCCN4C[C@H](F)C5)nc(c23)N2C[C@H]3CC[C@H](N3)[C@@H]12 [Compound 8, (5S,5aS,6S,9R)-2-(8-chloronaphthalen-1-yl)-1-fluoro-12-(((2R,7aS)-2-fluorotetrahydro-1H-pyrrolizin-7a(5H)-yl)methoxy)-5-methyl-5a,6,7,8,9,10-hexahydro-5H-4-oxa-3,10a,11,13,14-pentaaza-6,9-methanonaphtho[1,8-ab]heptalene]
- pIC50 [1]: 7.06
- pIC50 [2]: 7.14
- pIC50 [3]: 5.37
- pIC50 [4]: 5.41

Structure (SMILES): CCc1cccc2cc(O)cc(-c3nc4c5c(nc(OC[C@@]67CCCN6C[C@H](F)C7)nc5c3F)N3C[C@H]5CC[C@H](N5)[C@H]3[C@H](C)O4)c12 [Compound 10, 5-ethyl-4-((5S,5aS,6S,9R)-1-fluoro-12-(((2R,7aS)-2-fluorotetrahydro-1H-pyrrolizin-7a(5H)-yl)methoxy)-5-methyl-5a,6,7,8,9,10-hexahydro-5H-4-oxa-3,10a,11,13,14-pentaaza-6,9-methanonaphtho[1,8-ab]heptalen-2-yl)naphthalen-2-ol]
- pIC50 [1]: 8.22
- pIC50 [2]: 8.31
- pIC50 [3]: 5.64
- pIC50 [4]: 5.18

Structure (SMILES): C#Cc1cccc2cc(O)cc(-c3nc4c5c(nc(OC[C@@]67CCCN6C[C@H](F)C7)nc5c3F)N3C[C@H]5CC[C@H](N5)[C@H]3[C@H](C)O4)c12 [Compound 11, 5-ethynyl-4-((5S,5aS,6S,9R)-1-fluoro-12-(((2R,7aS)-2-fluorotetrahydro-1H-pyrrolizin-7a(5H)-yl)methoxy)-5-methyl-5a,6,7,8,9,10-hexahydro-5H-4-oxa-3,10a,11,13,14-pentaaza-6,9-methanonaphtho[1,8-ab]heptalen-2-yl)naphthalen-2-ol]
- pIC50 [1]: 8.62
- pIC50 [2]: 8.64
- pIC50 [3]: 6.77
- pIC50 [4]: ≤ 4.70

Structure (SMILES): C[C@@H]1Oc2nc(-c3cc(N)c(F)cc3C(F)(F)F)c(F)c3nc(OC[C@@]45CCCN4C[C@H](F)C5)nc(c23)N2C[C@H]3CC[C@H](N3)[C@@H]12 [Compound 14, 2-fluoro-5-((5S,5aS,6S,9R)-1-fluoro-12-(((2R,7aS)-2-fluorotetrahydro-1H-pyrrolizin-7a(5H)-yl)methoxy)-5-methyl-5a,6,7,8,9,10-hexahydro-5H-4-oxa-3,10a,11,13,14-pentaaza-6,9-methanonaphtho[1,8-ab]heptalen-2-yl)-4-(trifluoromethyl)aniline]
- pIC50 [1]: 7.95
- pIC50 [2]: 8.25
- pIC50 [3]: 5.60
- pIC50 [4]: 5.21

Structure (SMILES): Cc1cc(N)cc(-c2nc3c4c(nc(OC[C@@]56CCCN5C[C@H](F)C6)nc4c2F)N2C[C@H]4CC[C@H](N4)[C@H]2[C@H](C)O3)c1C(F)(F)F [Compound 16, 3-((5S,5aS,6S,9R)-1-fluoro-12-(((2R,7aS)-2-fluorotetrahydro-1H-pyrrolizin-7a(5H)-yl)methoxy)-5-methyl-5a,6,7,8,9,10-hexahydro-5H-4-oxa-3,10a,11,13,14-pentaaza-6,9-methanonaphtho[1,8-ab]heptalen-2-yl)-5-methyl-4-(trifluoromethyl)aniline]
- pIC50 [1]: 9.15
- pIC50 [2]: 8.89
- pIC50 [3]: 6.59
- pIC50 [4]: ≤ 4.70

Structure (SMILES): Cc1ccnc(-c2nc3c4c(nc(OC[C@]56CCN5CC(F)(F)C6)nc4c2F)N2C[C@H]4CC[C@H](N4)[C@H]2[C@H](C)O3)c1C(F)(F)F [Compound 88, (5S,5aS,6S,9R)-12-(((R)-3,3-Difluoro-1-azabicyclo[3.2.0]heptan-5-yl)methoxy)-1-fluoro-5-methyl-2-(4-methyl-3-(trifluoromethyl)pyridin-2-yl)-5a,6,7,8,9,10-hexahydro-5H-4-oxa-3,10a,11,13,14-pentaaza-6,9-methanonaphtho[1,8-ab]heptalene]
- pIC50 [2]: ≤ 4.70
- pIC50 [4]: ≤ 4.70
